These results are taken from paper PMC12165925 (Natural Products and Bioprospecting, 2025).

As a reminder, the Kd is the free concentration of one partner at which half of the binding sites on the other are occupied at equilibrium, for simple one-to-one binding. A word on the IC50: it is the midpoint of a concentration-inhibition curve. Usually CC50 stands for the concentration giving 50% cytotoxicity. One may read the Ki as the dissociation constant of the complex between target and ligand, obtained from inhibition or displacement.

In one data set the target is ACE2 (Homo sapiens, UniProt Q9BYF1). The experiment in a line: Surface plasmon resonance, immobilized ACE2. Type of data set: binding. To be noted: for kon / koff: SPR; for kon: read-out: binding rate constant (ka), ACE2; for koff: read-out: dissociation rate constant (kd), ACE2. Here is the method: Binding affinities between compounds and ACE2 or S-RBD were evaluated using a Biacore T200 instrument (Cytiva, UK). […] A mixture of 50 mM NHS and 200 mM EDC was injected to activate the surface, after which 20 µg/mL ACE2 was immobilized to achieve 15,020 RU, and 30 µg/mL S-RBD reached 7193 RU. Surface blocking was performed using 1 M ethanolamine at pH 8.5. Delphinidin with 5% DMSO was injected into the flow system and analyzed for 120 s, followed by 300 s of dissociation. Glycine–HCl at pH 3.0 was used for surface regeneration between analyte injections. Data were processed using double reference subtraction and solvent corrections. Binding affinities were determined using a Langmuir 1:1 binding model in Biacore Evaluation software (Cytiva, UK).
For orientation: In SPR one partner is held on a chip, and binding of the other changes the refractive index at the surface.

Data set [1] addresses T1, SARS-CoV-2 3CL^pro (Severe acute respiratory syndrome coronavirus 2, UniProt P0DTD1).
Another data set has as its system SARS-CoV-2-S pseudovirus. The experiment in a line: microbe, parasite or virus in culture. Type of data set: cell-based. Particulars: for inhibition of attachment of SARS-CoV-2-S pseudovirus to ACE2-expressing HEK293T cells: 5 µM and 50 µM, p < 0.001; for IC50: Pseudovirus.
On the set-up of data set [2]: method as in PMID 25980422. To be noted: cited from earlier work.
In another data set the test system is hACE2-HEK293T cells. The experiment in a line: Cytotoxicity, CCK-8, hACE2-HEK293T cells.
A short description of data set [3]: Cytotoxicity, CCK-8, hACE2-HEK293T cells. Particulars: human.
The next data set deals with BEL-7402 cells. The experiment in a line: Maximum non-toxic concentration in BEL-7402 cells (CPE monitoring).
The target in a further data set is S-RBD (Severe acute respiratory syndrome coronavirus 2, UniProt P0DTC2). The experiment in a line: Surface plasmon resonance, immobilized S-RBD. The format is binding, SARS-CoV-2. To be noted: SPR; for Kd: Langmuir 1:1 binding model; for kon: read-out: ka, S-RBD.
The test system of a further data set is HCoV-229E. The experiment in a line: Anti HCoV-229E activity in BEL-7402 cells (CPE, RT-qPCR). The format is cell-based.
The target in data set [4] is T1, SARS-CoV-2 3CL^pro. The experiment in a line: biochemical. Type of data set: binding.
Details of data set [5]: method as in PMID 31557009. To be noted: cited from earlier work.
Data set [6] is described as follows: Cytotoxicity, CCK-8, Vero-E6 cells. Particulars: African green monkey.
The next data set concerns Vero-E6 cells. The experiment in a line: Cytotoxicity, CCK-8, Vero-E6 cells. To be noted: at 200 µM.
The target in data set [7] is T1, SARS-CoV-2 3CL^pro. The experiment in a line: biochemical.
The next data set deals with cathepsin B (CTSB) (Homo sapiens, UniProt P07858). The experiment in a line: Host protease inhibitory activity assay, CTSB. Particulars: 50 µM.
The target of another data set is cathepsin L (CTSL) (Homo sapiens, UniProt P07711). The experiment in a line: Host protease inhibitory activity assay, CTSL. Particulars: 50 µM, p < 0.001.
A further data set deals with T2, chymotrypsin C (CTRC) (Homo sapiens, UniProt Q99895).
T2 sequence (Q99895 30-268): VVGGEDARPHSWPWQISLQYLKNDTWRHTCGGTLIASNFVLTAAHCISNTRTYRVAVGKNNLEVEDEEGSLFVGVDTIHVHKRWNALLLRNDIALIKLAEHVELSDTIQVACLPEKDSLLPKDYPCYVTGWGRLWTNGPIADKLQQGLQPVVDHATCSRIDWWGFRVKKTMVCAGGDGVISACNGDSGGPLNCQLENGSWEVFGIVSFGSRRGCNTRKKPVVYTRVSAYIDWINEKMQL
The experiment in a line: Host protease inhibitory activity assay, CTRC. To be noted: 50 µM, p < 0.001.

Sequence of ACE2 (Q9BYF1 18-805): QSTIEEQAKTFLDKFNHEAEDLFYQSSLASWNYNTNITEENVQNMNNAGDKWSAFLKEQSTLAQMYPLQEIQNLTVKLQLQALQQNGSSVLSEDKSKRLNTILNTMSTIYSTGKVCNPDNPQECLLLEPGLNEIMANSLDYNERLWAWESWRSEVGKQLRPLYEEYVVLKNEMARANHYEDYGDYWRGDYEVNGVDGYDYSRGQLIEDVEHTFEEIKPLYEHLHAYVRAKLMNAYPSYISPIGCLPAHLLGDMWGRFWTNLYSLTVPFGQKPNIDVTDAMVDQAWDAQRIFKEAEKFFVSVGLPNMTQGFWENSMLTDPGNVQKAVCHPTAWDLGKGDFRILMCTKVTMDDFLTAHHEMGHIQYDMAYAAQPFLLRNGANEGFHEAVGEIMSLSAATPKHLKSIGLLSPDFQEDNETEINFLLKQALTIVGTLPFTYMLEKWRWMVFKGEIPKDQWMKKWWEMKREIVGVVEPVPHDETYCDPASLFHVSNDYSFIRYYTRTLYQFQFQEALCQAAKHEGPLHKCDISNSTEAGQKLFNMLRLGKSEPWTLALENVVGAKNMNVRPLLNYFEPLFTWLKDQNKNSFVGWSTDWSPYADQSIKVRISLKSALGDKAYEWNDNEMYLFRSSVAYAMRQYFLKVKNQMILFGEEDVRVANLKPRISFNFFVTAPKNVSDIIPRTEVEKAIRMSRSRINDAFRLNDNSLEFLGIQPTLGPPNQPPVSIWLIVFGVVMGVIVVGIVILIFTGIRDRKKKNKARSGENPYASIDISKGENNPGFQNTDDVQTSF
Sequence of cathepsin L (CTSL) (P07711 114-333): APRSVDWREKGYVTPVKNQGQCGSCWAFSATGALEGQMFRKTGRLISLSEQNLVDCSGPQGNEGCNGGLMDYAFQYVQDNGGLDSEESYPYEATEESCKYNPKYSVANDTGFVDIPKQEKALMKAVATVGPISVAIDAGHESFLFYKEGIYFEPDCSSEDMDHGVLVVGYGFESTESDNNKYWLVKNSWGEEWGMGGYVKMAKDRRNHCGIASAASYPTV
Method for cathepsin B (CTSB): The activities of cathepsin B (CTSB), cathepsin L (CTSL), and chymotrypsin C (CTRC) were assessed following established methods [35, 36]. […] After further dilution to 500 pM, CTSB was incubated with the test compounds for 30 min, followed by the addition of 5 µM Z-Phe-Arg-AMC (NJPeptide Biotech, Nanjing, China) to initiate the reaction. Fluorescence was recorded using a Cytation 5 reader at excitation/emission wavelengths of 360/460 nm.
Method for cathepsin L (CTSL): (§1) Similarly, CTSL (Sino Biological, Beijing, China) was diluted, activated, and incubated with the test compounds before Z-Phe-Arg-AMC was added, with fluorescence measurements taken under the same conditions. For CTRC (Novoprotein, Suzhou, China), a 5 µg/mL solution was incubated with the test compounds in Tris buffer, then activated with trypsin (Sigma, Saint Louis, USA). The reaction was initiated using 100 µM Succinyl-Ala-Ala-Pro-Phe-p-nitroanilide (NJPeptide Biotech, Nanjing, China), and absorbance was measured at 405 nm.
Method for chymotrypsin C (CTRC): as §1

Regarding `C[C@@H]1O[C@@H](O[C@H]2[C@H](OC(=O)[C@]34CCC(C)(C)C[C@H]3C3=CC[C@@H]5[C@@]6(C)C[C@H](O)[C@H](O[C@@H]7O[C@H](CO)[C@@H](O)[C@H](O)[C@H]7O)C(CO)(CO)[C@@H]6CC[C@@]5(C)[C@]3(C)C[C@H]4O)OC[C@H](O)[C@@H]2O)[C@H](O)[C@H](O)[C@H]1O[C@@H]1OC[C@@H](O)[C@H](O)[C@H]1O` [DPD, Deapio platycodin D], at ACE2, binding was put at a Kd of 358 µM, the kon was determined as 54.6 M⁻¹ s⁻¹ and the koff came to 0.0196 s⁻¹. The “inhibition of SARS-CoV-2 3CL^pro” value against SARS-CoV-2 3CL^pro [1] is given as “lack of inhibition”. In the data set with SARS-CoV-2-S pseudovirus, the “selectivity index (SI), [CC50]/[IC50]” value came to 25.73; the “inhibition of attachment of SARS-CoV-2-S pseudovirus to ACE2-expressing HEK293T cells” value was “significantly inhibited”; the half-maximal inhibitory concentration (IC50) stood at 1.38 ± 0.46 µM. Besides, the Tmax result in [2] (oral administration ref 60) was “under 1 h”. Moreover, the elimination from tissues entry in data set [2] (particularly lung tissue ref 60) is recorded as “slow elimination”. Moreover, in the data set on hACE2-HEK293T cells (5 µM), the “cytotoxicity against hACE2-HEK293T cells” value is “no cytotoxicity”. Further, the “cytotoxicity against hACE2-HEK293T cells” value with hACE2-HEK293T cells (50 µM, p < 0.001) is reported as “had cytotoxicity”. Also, the midpoint of cytotoxicity in data set [3], the CC50, lay at 35.5 ± 1.77 µM. The “maximum non-toxic concentration (MNTC)” value in the data set with BEL-7402 cells stood at 12.50 µM. Moreover, on S-RBD, binding was put at a Kd of 379 µM and the kon turned out to be 103 M⁻¹ s⁻¹. Further, the “antiviral activity against HCoV-229E” value with HCoV-229E (12.50 µM (MNTC), BEL-7402 cells, RT-qPCR) is given as “significant antiviral activity”. Further, the IC50 with HCoV-229E (Human coronavirus 229E, Bel-7402, read-out: IC50, HCoV-229E replication) amounted to 3.3 µM.
On to `Oc1cc(O)c2cc(O)c(-c3cc(O)c(O)c(O)c3)[o+]c2c1` [Delphinidin], for which, on ACE2, binding was characterised by a dissociation constant (Kd) of 6.64 µM, the kon is 309 M⁻¹ s⁻¹ and the koff stood at 0.00205 s⁻¹. Also, the Kd on SARS-CoV-2 3CL^pro [4] stood at 24.5 µM. In addition, at SARS-CoV-2 3CL^pro [4] (read-out: Ka, SARS-CoV-2 3CL^pro), the kon was determined as 296 M⁻¹ s⁻¹. For the same molecule, in [5], the bioavailability entry is listed as “low”. Moreover, on SARS-CoV-2 3CL^pro [1], the “IC50 shift, 3 vs 30 min pre-incubation” value turned out to be 2.85 times and the “inhibition mechanism on SARS-CoV-2 3CL^pro” value was “non-competitive inhibitor”. This molecule also yielded a CC50 at 24 h in data set [6] of more than 200 µM. In addition, in the data set with Vero-E6 cells, the “cytotoxicity on Vero-E6 cells” value is listed as “no toxicity”. The same molecule had an inhibitory constant (Ki) at SARS-CoV-2 3CL^pro [7] of 930 nM. At SARS-CoV-2 3CL^pro [7] (IC50, SARS-CoV-2 3CL^pro), this molecule yielded an IC50 of 1540 ± 380 nM. 4390 ± 530 nM corresponded to half-maximal inhibition against SARS-CoV-2 3CL^pro [7] (IC50, SARS-CoV-2 3CL^pro (TDI)) (IC50). Moreover, in the data set on SARS-CoV-2-S pseudovirus, the “selectivity index (SI), [CC50]/[IC50]” value was more than 4.41; the “inhibition of attachment of SARS-CoV-2-S pseudovirus to ACE2-expressing HEK293T cells” value is given as “significantly inhibited”; the IC50 is 45.4 ± 7.09 µM. For the same molecule, the “cytotoxicity against hACE2-HEK293T cells” value with hACE2-HEK293T cells (screening concentrations 5 µM and 50 µM) was “not significantly cytotoxic”. The molecule also came in with a half-maximal cytotoxic concentration (CC50) in data set [3] of more than 200 µM. The “inhibition of CTSB” value at cathepsin B (CTSB) is listed as “did not inhibit”. On cathepsin L (CTSL), the “inhibition of CTSL” value was “strong inhibitory effect”. Further, on S-RBD, the “kd, S-RBD” value was 1.14 × 10^–3 s^−1; the equilibrium dissociation constant (Kd) was 2.98 µM; the kon turned out to be 383 M⁻¹ s⁻¹. At chymotrypsin C (CTRC), the “inhibition of CTRC” value was “strong inhibitory effect”.
